The text below walks through data of patent US20240100031A1, “PHARMACEUTICAL COMPOSITION FOR PREVENTING OR TREATING VIRAL […] PIPERLONGUMINE-BASED COMPOUND AS ACTIVE INGREDIENT” (priority 2020, published 2024).

For the assay, the system named is novel coronavirus (SARS-CoV-2). Briefly: microbe, parasite or virus in culture. It counts as cell-based. The conditions noted are these: for IC50: Severe acute respiratory syndrome coronavirus 2, Vero, 24 h, read-out: Infection inhibitory concentration IC50.

Regarding `COC(=O)c1cc(/C=C/C(=O)N2CCC=CC2=O)ccc1OC` [Compound 1, (E)-methyl-2-methoxy-5-(3-oxo-3-(2-oxo-5,6-dihydropyridin-1(2H)-yl)prop-1-en-1-yl)benzoate], the IC50 was found to be 4.46 µM.
Take `COC(=O)c1cc(/C=C/C(=O)N2CCC=C(Br)C2=O)ccc1O` [Compound 10, (E)-methyl-5-(3-(3-bromo-2-oxo-5,6-dihydropyridin-1(2H)-yl)-3-oxoprop-1-en-1-yl)-2-hydroxybenzoate]: the “inhibition of viral infection compared with positive controls (in words)” value was “more remarkable effects than remdesivir” and the IC50 amounted to 2.31 µM.
For the compound `O=C(/C=C/c1cccc([N+](=O)[O-])c1)N1CCC=C(Br)C1=O` [Compound 17, (E)-3-bromo-1-(3-(3-nitrophenyl)acryloyl)-5,6-dihydropyridin-2(1H)-one], the IC50 amounted to 5.34 µM.
Consider `CCN(CC)CCCC(C)Nc1ccnc2cc(Cl)ccc12` (centres unmarked) [Chloroquine, reference compound], for which the IC50 stood at 4.1 µM.
Same read-out and setting: the result for `COc1cc(/C=C/C(=O)N2CCC=C(Cl)C2=O)cc(OC)c1OCc1nnc(-c2cc(Cl)cc(Cl)c2)o1` [Compound 19, (E)-3-chloro-1-(3-(4-((5-(3,5-dichlorophenyl)-1,3,4-oxadiazol-2-yl)methoxy)-3,5-dimethoxyphenyl)acryloyl)-5,6-dihydropyridin-2(1H)-one] reads 4.12 µM; that for `O=C(/C=C/c1cccc([N+](=O)[O-])c1)N1CCC=C(Cl)C1=O` [Compound 16, (E)-3-chloro-1-(3-(3-nitrophenyl)acryloyl)-5,6-dihydropyridin-2(1H)-one], 4.19 µM.
Regarding `COC(=O)c1cc(/C=C/C(=O)N2CCC=C(Cl)C2=O)ccc1OC(C)=O` [Compound 13, (E)-methyl-2-acetoxy-5-(3-(3-chloro-2-oxo-5,6-dihydropyridin-1(2H)-yl)-3-oxoprop-1-en-1-yl)benzoate], the “inhibition of viral infection compared with positive controls (in words)” value is “more remarkable effects than remdesivir” and the IC50 was 1.86 µM.
The matching figures for `COC(=O)c1cc(/C=C/C(=O)N2CCC=C(Cl)C2=O)ccc1O` [Compound 12, (E)-methyl-5-(3-(3-chloro-2-oxo-5,6-dihydropyridin-1(2H)-yl)-3-oxoprop-1-en-1-yl)-2-hydroxybenzoate]: “more remarkable effects than remdesivir” and 2.63 µM.
In the case of `CCC(CC)COC(=O)[C@H](C)N[P@](=O)(OC[C@H]1O[C@@](C#N)(c2ccc3c(N)ncnn23)[C@H](O)[C@@H]1O)Oc1ccccc1` [Remdesivir, remdesivir, reference compound], the IC50 came out at 2.65 µM.
`COC(=O)c1cc(/C=C/C(=O)N2CCC=C(Br)C2=O)ccc1OC(C)=O` [Compound 11, (E)-methyl-2-acetoxy-5-(3-(3-bromo-2-oxo-5,6-dihydropyridin-1(2H)-yl)-3-oxoprop-1-en-1-yl)benzoate]: the “inhibition of viral infection compared with positive controls (in words)” value was “more remarkable effects than remdesivir” and the IC50 amounted to 1.97 µM.
The matching figures for `COC(=O)c1cc(/C=C/C(=O)N2CCC=C(Br)C2=O)ccc1OC` [Compound 9, (E)-methyl-5-(3-(3-bromo-2-oxo-5,6-dihydropyridin-1(2H)-yl)-3-oxoprop-1-en-1-yl)-2-methoxybenzoate]: “more remarkable effects than remdesivir” and 1.6 µM.
The matching figures for `COC(=O)c1cc(/C=C/C(=O)N2CCC=C(Cl)C2=O)ccc1OC` [Compound 3, (E)-methyl-5-(3-(3-chloro-2-oxo-5,6-dihydropyridin-1(2H)-yl)-3-oxoprop-1-en-1-yl)-2-methoxybenzoate]: “more remarkable effects than remdesivir” and 2.01 µM.
As for `COC(=O)c1cc(/C=C/C(=O)N2CC=CC2=O)ccc1OC(C)=O` [Compound 4, (E)-methyl-2-acetoxy-5-(3-oxo-3-(2-oxo-2,5-dihydro-1H-pyrrol-1-yl)prop-1-en-1-yl)benzoate], the IC50 was found to be 7.68 µM.
Still for that read-out and setting: for `Cc1cccc(C)c1OCC(=O)N[C@@H](Cc1ccccc1)[C@@H](O)C[C@H](Cc1ccccc1)NC(=O)[C@H](C(C)C)N1CCCNC1=O` [Lopinavir, lopinavir, reference compound] the value was 12.7 µM.
